Test system: sugarcane, variety RB 81-5156 (plant-cane)
Test: Evaluation of carfentrazone-ethyl as a sugarcane ripener (field trial, stems harvested 0-45 DAA; % POL, % BRIX, % PURITY)
Assay type: in vivo
Settings: average of four replications
Experimental: The following example further illustrates the present invention, but, of course, should not be construed as in any way limiting its scope. The example includes a protocol for the evaluation of certain PPO-inhibiting compounds as ripeners on sugarcane crops, and sets forth certain data indicating the effectiveness of such compounds. Yield is measured in % POL, which is the percent saccharose content in the pressed broth or the cane. Purity and % BRIX (defined as total sugar content including glucose, fructose, saccharose and minerals) are also measures of crop yield, although the saccharose content is of primary concern.
The trial was performed on sugarcane, variety RB 81-5156 (plant-cane). The sugarcane was planted with spacing of 1.40 m between rows, using 30 kg/ha of N; 100 kg/ha of P2O5 and 80 gk/ha of K2O as basic fertilizers, complemented by a covering application of 30 kg/ha of N.
The application of ripeners was performed with pressurized back-pack sprayers, with flat fan nozzle 110.01. The flow was 65 l/ha and the pressure was 35 lb/in^2.
The experimental design used randomized plots with 6 treatments and 4 replications. The size of each experimental plot was 126 m^2 (6 spacing lines of 1.40 m per 15 m of length).
The climatic conditions at the time of the ripener applications were: average temperature of 27° C.; air relative humidity of 73%, wind speed of 4 km/hour.
One linear meter of stems was harvested in each experimental plot at 0 (zero), 15, 30 and 45 days after application (DAA) of the ripener. The sugar was extracted from these stems and submitted for GC and refractometer analysis of percent saccharose, glucose, fructose and minerals corresponding to % POL, % BRIX and % PURITY.
The results, shown as an average of four replications, were compared with results observed in the same trials with trinexapac-ethyl (Moddus).

Structure (SMILES): CCOC(=O)C(Cl)Cc1cc(-n2nc(C)n(C(F)F)c2=O)c(F)cc1Cl (stereo not drawn) [Carfentrazone-ethyl, ethyl α,2-dichloro-5-[4-(difluoromethyl)-4,5-dihydro-3-methyl-5-oxo-1H-1,2,4-triazol-1-yl]-4-fluorobenzenepropanoate]
- % BRIX in Pressed Broth of Sugarcane Crop after Application of Ripeners (30 g ai/ha, 0 DAA): 14.80%
- % POL in Pressed Broth of Sugarcane Crop after Application of Ripeners (30 g ai/ha, 0 DAA): 11.90%
- % POL in the Cane of Sugarcane Crop after Application of Ripeners (30 g ai/ha, 0 DAA): 10.38%
- % PURITY in Pressed Broth of Sugarcane Crop after Application of Ripeners (30 g ai/ha, 0 DAA): 78.48%
- % BRIX in Pressed Broth of Sugarcane Crop after Application of Ripeners (30 g ai/ha, 15 DAA): 15.40%
- % POL in Pressed Broth of Sugarcane Crop after Application of Ripeners (30 g ai/ha, 15 DAA): 12.35%
- % POL in the Cane of Sugarcane Crop after Application of Ripeners (30 g ai/ha, 15 DAA): 10.68%
- % PURITY in Pressed Broth of Sugarcane Crop after Application of Ripeners (30 g ai/ha, 15 DAA): 79.10%
- % BRIX in Pressed Broth of Sugarcane Crop after Application of Ripeners (30 g ai/ha, 30 DAA): 16.15%
- % POL in Pressed Broth of Sugarcane Crop after Application of Ripeners (30 g ai/ha, 30 DAA): 12.75%
- % POL in the Cane of Sugarcane Crop after Application of Ripeners (30 g ai/ha, 30 DAA): 10.75%
- % PURITY in Pressed Broth of Sugarcane Crop after Application of Ripeners (30 g ai/ha, 30 DAA): 79.50%
- % BRIX in Pressed Broth of Sugarcane Crop after Application of Ripeners (30 g ai/ha, 45 DAA): 16.40%
- % POL in Pressed Broth of Sugarcane Crop after Application of Ripeners (30 g ai/ha, 45 DAA): 12.20%
- % POL in the Cane of Sugarcane Crop after Application of Ripeners (30 g ai/ha, 45 DAA): 10.75%
- % PURITY in Pressed Broth of Sugarcane Crop after Application of Ripeners (30 g ai/ha, 45 DAA): 79.35%
- % BRIX in Pressed Broth of Sugarcane Crop after Application of Ripeners (40 g ai/ha, 0 DAA): 14.50%
- % POL in Pressed Broth of Sugarcane Crop after Application of Ripeners (40 g ai/ha, 0 DAA): 12.55%
- % POL in the Cane of Sugarcane Crop after Application of Ripeners (40 g ai/ha, 0 DAA): 10.38%
- % PURITY in Pressed Broth of Sugarcane Crop after Application of Ripeners (40 g ai/ha, 0 DAA): 78.90%
- % BRIX in Pressed Broth of Sugarcane Crop after Application of Ripeners (40 g ai/ha, 15 DAA): 15.50%
- % POL in Pressed Broth of Sugarcane Crop after Application of Ripeners (40 g ai/ha, 15 DAA): 13.18%
- % POL in the Cane of Sugarcane Crop after Application of Ripeners (40 g ai/ha, 15 DAA): 10.63%
- % PURITY in Pressed Broth of Sugarcane Crop after Application of Ripeners (40 g ai/ha, 15 DAA): 80.28%
- % BRIX in Pressed Broth of Sugarcane Crop after Application of Ripeners (40 g ai/ha, 30 DAA): 16.98%
- % POL in Pressed Broth of Sugarcane Crop after Application of Ripeners (40 g ai/ha, 30 DAA): 13.70%
- % POL in the Cane of Sugarcane Crop after Application of Ripeners (40 g ai/ha, 30 DAA): 10.98%
- % PURITY in Pressed Broth of Sugarcane Crop after Application of Ripeners (40 g ai/ha, 30 DAA): 81.20%
- % BRIX in Pressed Broth of Sugarcane Crop after Application of Ripeners (40 g ai/ha, 45 DAA): 16.90%
- % POL in Pressed Broth of Sugarcane Crop after Application of Ripeners (40 g ai/ha, 45 DAA): 13.58%
- % POL in the Cane of Sugarcane Crop after Application of Ripeners (40 g ai/ha, 45 DAA): 11.00%
- % PURITY in Pressed Broth of Sugarcane Crop after Application of Ripeners (40 g ai/ha, 45 DAA): 81.43%
- % BRIX in Pressed Broth of Sugarcane Crop after Application of Ripeners (60 g ai/ha, 0 DAA): 14.60%
- % POL in Pressed Broth of Sugarcane Crop after Application of Ripeners (60 g ai/ha, 0 DAA): 12.55%
- % POL in the Cane of Sugarcane Crop after Application of Ripeners (60 g ai/ha, 0 DAA): 10.63%
- % PURITY in Pressed Broth of Sugarcane Crop after Application of Ripeners (60 g ai/ha, 0 DAA): 79.35%
- % BRIX in Pressed Broth of Sugarcane Crop after Application of Ripeners (60 g ai/ha, 15 DAA): 15.20%
- % POL in Pressed Broth of Sugarcane Crop after Application of Ripeners (60 g ai/ha, 15 DAA): 13.58%
- % POL in the Cane of Sugarcane Crop after Application of Ripeners (60 g ai/ha, 15 DAA): 11.38%
- % PURITY in Pressed Broth of Sugarcane Crop after Application of Ripeners (60 g ai/ha, 15 DAA): 81.85%
- % BRIX in Pressed Broth of Sugarcane Crop after Application of Ripeners (60 g ai/ha, 30 DAA): 17.75%
- % POL in Pressed Broth of Sugarcane Crop after Application of Ripeners (60 g ai/ha, 30 DAA): 14.50%
- % POL in the Cane of Sugarcane Crop after Application of Ripeners (60 g ai/ha, 30 DAA): 12.45%
- % PURITY in Pressed Broth of Sugarcane Crop after Application of Ripeners (60 g ai/ha, 30 DAA): 83.15%
- % BRIX in Pressed Broth of Sugarcane Crop after Application of Ripeners (60 g ai/ha, 45 DAA): 17.45%
- % POL in Pressed Broth of Sugarcane Crop after Application of Ripeners (60 g ai/ha, 45 DAA): 14.35%
- % POL in the Cane of Sugarcane Crop after Application of Ripeners (60 g ai/ha, 45 DAA): 12.38%
- % PURITY in Pressed Broth of Sugarcane Crop after Application of Ripeners (60 g ai/ha, 45 DAA): 83.15%
- % BRIX in Pressed Broth of Sugarcane Crop after Application of Ripeners (80 g ai/ha, 0 DAA): 14.50%
- % POL in Pressed Broth of Sugarcane Crop after Application of Ripeners (80 g ai/ha, 0 DAA): 12.45%
- % POL in the Cane of Sugarcane Crop after Application of Ripeners (80 g ai/ha, 0 DAA): 10.80%
- % PURITY in Pressed Broth of Sugarcane Crop after Application of Ripeners (80 g ai/ha, 0 DAA): 80.05%
- % BRIX in Pressed Broth of Sugarcane Crop after Application of Ripeners (80 g ai/ha, 15 DAA): 15.80%
- % POL in Pressed Broth of Sugarcane Crop after Application of Ripeners (80 g ai/ha, 15 DAA): 14.08%
- % POL in the Cane of Sugarcane Crop after Application of Ripeners (80 g ai/ha, 15 DAA): 11.93%
- % PURITY in Pressed Broth of Sugarcane Crop after Application of Ripeners (80 g ai/ha, 15 DAA): 82.90%
- % BRIX in Pressed Broth of Sugarcane Crop after Application of Ripeners (80 g ai/ha, 30 DAA): 17.90%
- % POL in Pressed Broth of Sugarcane Crop after Application of Ripeners (80 g ai/ha, 30 DAA): 15.05%
- % POL in the Cane of Sugarcane Crop after Application of Ripeners (80 g ai/ha, 30 DAA): 13.25%
- % PURITY in Pressed Broth of Sugarcane Crop after Application of Ripeners (80 g ai/ha, 30 DAA): 84.45%
- % BRIX in Pressed Broth of Sugarcane Crop after Application of Ripeners (80 g ai/ha, 45 DAA): 17.80%
- % POL in Pressed Broth of Sugarcane Crop after Application of Ripeners (80 g ai/ha, 45 DAA): 15.30%
- % POL in the Cane of Sugarcane Crop after Application of Ripeners (80 g ai/ha, 45 DAA): 13.35%
- % PURITY in Pressed Broth of Sugarcane Crop after Application of Ripeners (80 g ai/ha, 45 DAA): 84.05%
- % BRIX in Pressed Broth of Sugarcane Crop after Application of Ripeners (100 g ai/ha, 0 DAA): 14.90%
- % POL in Pressed Broth of Sugarcane Crop after Application of Ripeners (100 g ai/ha, 0 DAA): 12.50%
- % POL in the Cane of Sugarcane Crop after Application of Ripeners (100 g ai/ha, 0 DAA): 10.98%
- % PURITY in Pressed Broth of Sugarcane Crop after Application of Ripeners (100 g ai/ha, 0 DAA): 81.85%
- % BRIX in Pressed Broth of Sugarcane Crop after Application of Ripeners (100 g ai/ha, 15 DAA): 15.30%
- % POL in Pressed Broth of Sugarcane Crop after Application of Ripeners (100 g ai/ha, 15 DAA): 14.70%
- % POL in the Cane of Sugarcane Crop after Application of Ripeners (100 g ai/ha, 15 DAA): 12.25%
- % PURITY in Pressed Broth of Sugarcane Crop after Application of Ripeners (100 g ai/ha, 15 DAA): 83.78%
- % BRIX in Pressed Broth of Sugarcane Crop after Application of Ripeners (100 g ai/ha, 30 DAA): 18.25%
- % POL in Pressed Broth of Sugarcane Crop after Application of Ripeners (100 g ai/ha, 30 DAA): 15.90%
- % POL in the Cane of Sugarcane Crop after Application of Ripeners (100 g ai/ha, 30 DAA): 13.83%
- % PURITY in Pressed Broth of Sugarcane Crop after Application of Ripeners (100 g ai/ha, 30 DAA): 86.05%
- % BRIX in Pressed Broth of Sugarcane Crop after Application of Ripeners (100 g ai/ha, 45 DAA): 18.60%
- % POL in Pressed Broth of Sugarcane Crop after Application of Ripeners (100 g ai/ha, 45 DAA): 15.75%
- % POL in the Cane of Sugarcane Crop after Application of Ripeners (100 g ai/ha, 45 DAA): 13.43%
- % PURITY in Pressed Broth of Sugarcane Crop after Application of Ripeners (100 g ai/ha, 45 DAA): 83.38%

Structure (SMILES): CCOC(=O)C1CC(=O)C(=C(O)C2CC2)C(=O)C1 (stereo not drawn) [trinexapac-ethyl, reference compound]
- % BRIX in Pressed Broth of Sugarcane Crop after Application of Ripeners (250 g ai/ha, 0 DAA): 14.93%
- % POL in Pressed Broth of Sugarcane Crop after Application of Ripeners (250 g ai/ha, 0 DAA): 12.75%
- % POL in the Cane of Sugarcane Crop after Application of Ripeners (250 g ai/ha, 0 DAA): 11.35%
- % PURITY in Pressed Broth of Sugarcane Crop after Application of Ripeners (250 g ai/ha, 0 DAA): 81.53%
- % BRIX in Pressed Broth of Sugarcane Crop after Application of Ripeners (250 g ai/ha, 15 DAA): 15.15%
- % POL in Pressed Broth of Sugarcane Crop after Application of Ripeners (250 g ai/ha, 15 DAA): 14.25%
- % POL in the Cane of Sugarcane Crop after Application of Ripeners (250 g ai/ha, 15 DAA): 12.53%
- % PURITY in Pressed Broth of Sugarcane Crop after Application of Ripeners (250 g ai/ha, 15 DAA): 83.73%
- % BRIX in Pressed Broth of Sugarcane Crop after Application of Ripeners (250 g ai/ha, 30 DAA): 17.85%
- % POL in Pressed Broth of Sugarcane Crop after Application of Ripeners (250 g ai/ha, 30 DAA): 15.80%
- % POL in the Cane of Sugarcane Crop after Application of Ripeners (250 g ai/ha, 30 DAA): 13.45%
- % PURITY in Pressed Broth of Sugarcane Crop after Application of Ripeners (250 g ai/ha, 30 DAA): 85.15%
- % BRIX in Pressed Broth of Sugarcane Crop after Application of Ripeners (250 g ai/ha, 45 DAA): 18.45%
- % POL in Pressed Broth of Sugarcane Crop after Application of Ripeners (250 g ai/ha, 45 DAA): 15.75%
- % POL in the Cane of Sugarcane Crop after Application of Ripeners (250 g ai/ha, 45 DAA): 14.20%
- % PURITY in Pressed Broth of Sugarcane Crop after Application of Ripeners (250 g ai/ha, 45 DAA): 84.78%
